Results published in patent publication US20240390335A1, “PHARMACEUTICAL COMPOSITION CONTAINING BETA-LACTAM COMPOUND AND USE THEREOF” (priority 2021, published 2024).
Values after ≈ are worked out from the molar mass of the structure shown.

What was measured:
Enterobacter cloacae [1] = experiment: Combined in vitro use, checkerboard dilution method; format: cell-based; settings: compound of formula (I-1) combined with avibactam; Enterobacter cloacae ATCC 2468
Protocol: (§1) Mueller-Hinton broth (MH broth) medium, Trypticase Soy Broth (TSB Broth) medium, purchased from BD Difco, Cockeysville, MD, USA; • 96-well plate: Corning Costar, Cambridge, MA, USA; • Test method: the checkerboard dilution method was used for determination.
(§2) (1) Preparation of the test samples: 4 mg of each sample was taken and was prepared into a test solution at 2,048 μg/mL with MH broth, and the test solution was diluted two-fold in a 96-well plate to prepare solutions of a series of gradient concentrations.
(§3) (2) Preparation of a bacteria solution: The test strains were amplified by Trypticase Soy Broth (TSB Broth) according to the CLSI/NCCLS standard.
(§4) (3) Addition of the samples: 10 μL of the bacteria solution with a concentration of 6×10^5 CFU/mL was pipetted into each well of the 96-well plate. Each well contained the antibacterial drugs (the compound of formula (I-1) and the compound of formula (I-2)) diluted two-fold with broth and the aforementioned lactamase inhibitor or efflux pump inhibitor. […] The samples were mixed thoroughly. Three parallel experiments were set up for each concentration and the results were averaged. To the negative control group, 10 μL of the bacterial solution and 90 μL MH broth were added.
(§5) (4) Incubation: the 96-well plate was placed in a 37° C. constant-temperature incubator for 18 hours, and the growth of the strains was observed.
(§6) (5) Calculation: The in vitro effect of each drug-inhibitor combination was analyzed by calculating the FICI value: FICI=(MIC of drug A in the combination/MIC of drug A alone)+ (MIC of drug B in the combination/MIC of drug B alone).
(§7) In order to ensure the reliability of the data, three repeated tests were conducted on different dates and the results were averaged.

Escherichia coli [2] = experiment: as above; format: cell-based; settings: compound of formula (I-1) combined with avibactam
Protocol: as §1, §2, §3, §4, §5, §6, §7

Klebsiella pneumoniae [3] = experiment: as above; format: cell-based
Protocol: as §1, §2, §3, §4, §5, §6, §7

[4] = system: drug-resistant Enterobacteriaceae; experiment: MIC assay of individual compounds, summary over Enterobacteriaceae strains; format: cell-based; settings: against the aforementioned Enterobacteriaceae
Protocol: (§8) Mueller-Hinton broth (MH broth) medium, Trypticase Soy Broth (TSB Broth) medium, purchased from BD Difco, Cockeysville, MD, USA; • 96-well plate: Corning Costar, Cambridge, MA, USA; • Test method: the antibacterial activities were tested by the microdilution method according to the CLSI/NCCLS standard.
(§9) (1) Preparation of the test samples: 4 mg of each sample was taken, and was prepared into a test solution at 1,024 μg/mL with MH broth, and the test solution was diluted two-fold in a 96-well plate to prepare solutions of a series of gradient concentrations, the volume in each well being 90 μL.
as §3
(§10) (3) Addition of the samples: a bacteria solution with a concentration of 6×10^5 cfu/mL was prepared, and 10 μL of the bacteria solution was pipetted into each well of the 96-well plate. Three parallel experiments were set up for each concentration and the results were averaged. To the negative control group, 10 μL of the bacterial solution and 90 μL MH broth were added.
(§11) (4) Incubation: the 96-well plate was placed in a 37° C. constant-temperature incubator for 18 hours, and the growth of the strains was observed. The drug concentration in the well with no microbial growth was recorded as the MIC.

Enterobacter cloacae [5] = experiment: MIC assay of individual compounds (microdilution, CLSI/NCCLS); format: cell-based; settings: individual compound
Protocol: as §8, §9, §3, §10, §11

Escherichia coli [6] = experiment: as above; format: cell-based; settings: individual compound
Protocol: as §8, §9, §3, §10, §11

Klebsiella pneumoniae [7] = experiment: as above; format: cell-based; settings: individual compound
Protocol: as §8, §9, §3, §10, §11

[8] = system: Klebsiella pneumoniae ATCC BAA2146 (NDM-1); settings: avibactam itself; stated as well known to those skilled in the art; cited from earlier work
[9] = Escherichia coli CCPM(A)-P-071301

NC(=O)[C@@H]1CC[C@@H]2CN1C(=O)N2OS(=O)(=O)O [Avibactam, avibactam]
MIC in combination (Enterobacter cloacae [1]): 4 µg/mL
MIC in combination (Escherichia coli [2]; Escherichia coli ATCC 2469): 1 µg/mL
MIC in combination (Escherichia coli [2]; [9]): 1 µg/mL
MIC in combination (Klebsiella pneumoniae [3]; compound of formula (I-1) combined with avibactam, Klebsiella pneumoniae ATCC 2146): 2 µg/mL
MIC in combination (Klebsiella pneumoniae [3]; compound of formula (I-1) combined with avibactam, Klebsiella pneumoniae ATCC 700603): 0.5 µg/mL
MIC in combination (Klebsiella pneumoniae [3]; compound of formula (I-1) combined with avibactam, Klebsiella pneumoniae CCPM(A)-0814R18): 0.5 µg/mL
MIC in combination (Klebsiella pneumoniae [3]; compound of formula (I-1) combined with avibactam, Klebsiella pneumoniae CCPM(A)-0814R33): 2 µg/mL
MIC in combination (Klebsiella pneumoniae [3]; compound of formula (I-1) combined with avibactam, Klebsiella pneumoniae CCPM(A)-0817R61): 0.5 µg/mL
MIC in combination (Klebsiella pneumoniae [3]; compound of formula (I-1) combined with avibactam, Klebsiella pneumoniae CCPM(A)-081705): 8 µg/mL
MIC in combination (Klebsiella pneumoniae [3]; compound of formula (I-1) combined with avibactam, Klebsiella pneumoniae CCPM(A)-081715): 0.5 µg/mL
MIC in combination (Klebsiella pneumoniae [3]; compound of formula (I-1) combined with avibactam, Klebsiella pneumoniae CCPM(A)-081716): 8 µg/mL
MIC in combination (Klebsiella pneumoniae [3]; compound of formula (I-1) combined with avibactam, Klebsiella pneumoniae CCPM(A)-081729): 8 µg/mL
MIC in combination (Klebsiella pneumoniae [3]; compound of formula (I-2) combined with avibactam, Klebsiella pneumoniae ATCC 2146): 0.5 µg/mL
MIC in combination (Klebsiella pneumoniae [3]; compound of formula (I-2) combined with avibactam, Klebsiella pneumoniae ATCC 700603): 0.5 µg/mL
MIC in combination (Klebsiella pneumoniae [3]; compound of formula (I-2) combined with avibactam, Klebsiella pneumoniae CCPM(A)-081715): 4 µg/mL
MIC in combination (Klebsiella pneumoniae [3]; compound of formula (I-2) combined with avibactam, Klebsiella pneumoniae CCPM(A)-081729): 4 µg/mL
activity of the inhibitor itself [4]: relatively weak activities
MIC (Enterobacter cloacae [5]; Enterobacter cloacae ATCC 2468): 32 µg/mL (≈ 121 µM)
MIC (Enterobacter cloacae [5]; Enterobacter cloacae CCPM(A)-P-111719): 32 µg/mL (≈ 121 µM)
MIC (Escherichia coli [6]; Escherichia coli ATCC 2469): 16 µg/mL (≈ 60.3 µM)
MIC (Escherichia coli [6]; [9]): 16 µg/mL (≈ 60.3 µM)
MIC (Klebsiella pneumoniae [7]; Klebsiella pneumoniae ATCC 2146): 8 µg/mL (≈ 30.2 µM)
MIC (Klebsiella pneumoniae [7]; Klebsiella pneumoniae ATCC 700603): 16 µg/mL (≈ 60.3 µM)
MIC (Klebsiella pneumoniae [7]; Klebsiella pneumoniae CCPM(A)-0814R18): 16 µg/mL (≈ 60.3 µM)
MIC (Klebsiella pneumoniae [7]; Klebsiella pneumoniae CCPM(A)-0814R33): 16 µg/mL (≈ 60.3 µM)
MIC (Klebsiella pneumoniae [7]; Klebsiella pneumoniae CCPM(A)-0817R61): 32 µg/mL (≈ 121 µM)
MIC (Klebsiella pneumoniae [7]; Klebsiella pneumoniae CCPM(A)-081301): 32 µg/mL (≈ 121 µM)
MIC (Klebsiella pneumoniae [7]; Klebsiella pneumoniae CCPM(A)-081705): 16 µg/mL (≈ 60.3 µM)
MIC (Klebsiella pneumoniae [7]; Klebsiella pneumoniae CCPM(A)-081715): 32 µg/mL (≈ 121 µM)
MIC (Klebsiella pneumoniae [7]; Klebsiella pneumoniae CCPM(A)-081716): 16 µg/mL (≈ 60.3 µM)
MIC (Klebsiella pneumoniae [7]; Klebsiella pneumoniae CCPM(A)-081729): 32 µg/mL (≈ 121 µM)
in vivo antibacterial effect on the test strain [8]: no in vivo antibacterial effect
